In this test the target is T1, PD-1-Ig binding to PD-L1-TVMV-His (PD-L1-His) (Homo sapiens, UniProt Q9NZQ7).
T1 construct: hPDL1(19-239)-TVMV-His; made in house; host or cells: HEK293T cells
The experiment in a line: PD-1/PD-L1 Homogenous Time-Resolved Fluorescence (HTRF) binding assay. Particulars: PD-1-Ig (20 nM) / PD-L1-His (10 nM). A digest of the protocol:
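HTRF competition: compound pre-incubated 15 min with PD-L1-His (10 nM final), then PD-1-Ig (20 nM final) added for 15 min in dPBS, 0.1% BSA, 0.05% Tween-20. Detection with Eu-cryptate anti-Ig (1 nM) and APC anti-His (20 nM) antibodies.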
(TR-FRET usually uses a lanthanide donor and a delayed reading to cut background.)

Positions of bridges follow the written chain, without caps; N, C: chain ends. Non-standard residues stand in square brackets, D forms with d. Residues, ends and D or L forms follow the SMILES beside them. Trp(1-CH2COOH) = N[C@@H](Cc1cn(CC(=O)O)c2ccccc12)C(=O)O; Hyp = O=C(O)[C@@H]1C[C@@H](O)CN1; Aad = N[C@@H](CCCC(=O)O)C(=O)O; NMeNle = CCCC[C@H](NC)C(=O)O; Pip = O=C(O)[C@@H]1CCCCN1; NMeA = CN[C@@H](C)C(=O)O; Orn = NCCC[C@H](N)C(=O)O; Dab = NCC[C@H](N)C(=O)O; Dap = NC[C@H](N)C(=O)O; Ava = NCCCCC(=O)O

The IC50 is the concentration that inhibits the measured activity by half.

T1 sequence (Q9NZQ7 with tags, fused parts or gaps): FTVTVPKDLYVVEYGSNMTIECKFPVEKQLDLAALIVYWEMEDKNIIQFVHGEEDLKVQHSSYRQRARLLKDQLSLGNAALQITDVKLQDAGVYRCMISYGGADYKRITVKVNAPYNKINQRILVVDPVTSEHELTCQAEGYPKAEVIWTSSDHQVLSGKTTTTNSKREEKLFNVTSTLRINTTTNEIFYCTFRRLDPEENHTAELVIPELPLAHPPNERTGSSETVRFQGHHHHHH

As for `CCCC[C@H]1C(=O)N(C)[C@@H](CCCC)C(=O)N[C@@H](CC(C)C)C(=O)N[C@H](C(=O)NCC(N)=O)CCCC(=O)N[C@@H](Cc2ccc(O)cc2)C(=O)N(C)[C@@H](C)C(=O)N[C@@H](CC(N)=O)C(=O)N2CCC[C@H]2C(=O)N[C@@H](CN)C(=O)N[C@@H](CCC(=O)O)C(=O)N2C[C@H](O)C[C@H]2C(=O)N[C@@H](Cc2c[nH]c3ccccc23)C(=O)N[C@@H](CCN)C(=O)N[C@@H](Cc2cn(CC(=O)O)c3ccccc23)C(=O)N1C` [Example 10507] (Y[NMeA]NP[Dap]E[Hyp]W[Dab][Trp(1-CH2COOH)][NMeNle][NMeNle]L[Aad]G-NH2; lactam N-14), the IC50 (range classes) lay in the range of 0.001 to 0.0099 µM.
On the same count and under the same terms, the same measure for `CCCC[C@H]1C(=O)N(C)[C@@H](CCCC)C(=O)N[C@@H](CC(C)C)C(=O)N[C@H](C(=O)NCC(N)=O)CCCC(=O)N[C@@H](Cc2ccc(O)cc2)C(=O)N2CCCC[C@H]2C(=O)N[C@@H](CC(N)=O)C(=O)N2CCC[C@H]2C(=O)N[C@@H](CN)C(=O)N[C@@H](CCC(=O)O)C(=O)N2C[C@H](O)C[C@H]2C(=O)N[C@@H](Cc2c[nH]c3ccccc23)C(=O)N[C@@H](CCN)C(=O)N[C@@H](Cc2cn(CC(=O)O)c3ccccc23)C(=O)N1C` [Example 10508] (Y[Pip]NP[Dap]E[Hyp]W[Dab][Trp(1-CH2COOH)][NMeNle][NMeNle]L[Aad]G-NH2; lactam N-14): 0.01 to 0.099 µM.
In turn, `CCCC[C@H]1C(=O)N(C)[C@@H](CCCC)C(=O)N[C@@H](CC(C)C)C(=O)NCCCCC(=O)N[C@@H](Cc2ccc(O)cc2)C(=O)N(C)[C@@H](C)C(=O)N[C@@H](CC(=O)O)C(=O)N2CCC[C@H]2C(=O)N[C@@H](Cc2c[nH]cn2)C(=O)N[C@@H](CCCCN)C(=O)N2C[C@H](O)C[C@H]2C(=O)N[C@@H](Cc2c[nH]c3ccccc23)C(=O)N[C@@H](CCCCN)C(=O)N[C@@H](Cc2cn(CC(=O)O)c3ccccc23)C(=O)N1C` [Example 10509] (cyclo([Ava]Y[NMeA]DPHK[Hyp]WK[Trp(1-CH2COOH)][NMeNle][NMeNle]L)) returned an IC50 (numeric values) of 0.765 µM.
Where the note is “range classes”, `CCCC[C@H]1C(=O)N(C)[C@@H](CCCC)C(=O)N[C@@H](CC(C)C)C(=O)NCCCCC(=O)N[C@@H](Cc2ccc(O)cc2)C(=O)N2CCCC[C@H]2C(=O)N[C@@H](CC(=O)O)C(=O)N2CCC[C@H]2C(=O)N[C@@H](Cc2c[nH]cn2)C(=O)N[C@@H](CCCCN)C(=O)N2C[C@H](O)C[C@H]2C(=O)N[C@@H](Cc2c[nH]c3ccccc23)C(=O)N[C@@H](CCCCN)C(=O)N[C@@H](Cc2cn(CC(=O)O)c3ccccc23)C(=O)N1C` [Example 10510] (cyclo([Ava]Y[Pip]DPHK[Hyp]WK[Trp(1-CH2COOH)][NMeNle][NMeNle]L)) came in with a concentration for half-maximal inhibition (IC50) of 0.1 to 10 µM.
Regarding `CCCC[C@H]1C(=O)N(C)[C@@H](CCCC)C(=O)N[C@@H](CC(C)C)C(=O)NCCC[C@H](N)C(=O)N[C@@H](Cc2ccc(O)cc2)C(=O)N2CCCC[C@H]2C(=O)N[C@@H](CC(N)=O)C(=O)N2CCC[C@H]2C(=O)N[C@@H](CN)C(=O)N[C@@H](CC(C)C)C(=O)N2CCC[C@H]2C(=O)N[C@@H](Cc2c[nH]c3ccccc23)C(=O)N[C@@H](CCN)C(=O)N[C@@H](Cc2cn(CC(=O)O)c3ccccc23)C(=O)N1C` [Example 10511] (H-[Orn]Y[Pip]NP[Dap]LPW[Dab][Trp(1-CH2COOH)][NMeNle][NMeNle]L; lactam 1-C), the concentration for half-maximal inhibition (IC50) (range classes) lay in the range of 0.1 to 10 µM.
On the same count and under the same terms, the same measure for `CCCC[C@H]1C(=O)N(C)[C@@H](CCCC)C(=O)N[C@@H](CC(C)C)C(=O)NCCCCC(=O)N[C@@H](Cc2ccc(O)cc2)C(=O)N2CCCC[C@H]2C(=O)N[C@@H](CC(N)=O)C(=O)N2CCC[C@H]2C(=O)N[C@@H](CN)C(=O)N[C@@H](CC(C)C)C(=O)N2C[C@H](O)C[C@H]2C(=O)N[C@@H](Cc2c[nH]c3ccccc23)C(=O)N[C@@H](CCN)C(=O)N[C@@H](Cc2cn(CC(=O)O)c3ccccc23)C(=O)N1C` [Example 10512] (cyclo([Ava]Y[Pip]NP[Dap]L[Hyp]W[Dab][Trp(1-CH2COOH)][NMeNle][NMeNle]L)): 0.1 to 10 µM.
On to `CCCC[C@H]1C(=O)N(C)[C@@H](CCCC)C(=O)N[C@@H](CC(C)C)C(=O)NCCCCC(=O)N[C@@H](Cc2ccc(O)cc2)C(=O)N2CCCC[C@H]2C(=O)N[C@@H](CC(N)=O)C(=O)N2CCC[C@H]2C(=O)N[C@@H](CN)C(=O)N[C@@H](CCC(=O)O)C(=O)N2C[C@H](O)C[C@H]2C(=O)N[C@@H](Cc2c[nH]c3ccccc23)C(=O)N[C@@H](CCN)C(=O)N[C@@H](Cc2cn(CC(=O)O)c3ccccc23)C(=O)N1C` [Example 10513] (cyclo([Ava]Y[Pip]NP[Dap]E[Hyp]W[Dab][Trp(1-CH2COOH)][NMeNle][NMeNle]L)), for which the IC50 (numeric values) was determined as 0.354 µM.
In the case of `CCCC[C@H]1C(=O)N(C)[C@@H](CCCC)C(=O)N[C@@H](CC(C)C)C(=O)N[C@H](C(=O)NCC(N)=O)CCCC(=O)N[C@@H](Cc2ccc(O)cc2)C(=O)N2CCCC[C@H]2C(=O)N[C@@H](CC(N)=O)C(=O)N2CCC[C@H]2C(=O)N[C@@H](CN)C(=O)N[C@@H](CC(C)C)C(=O)N2C[C@H](O)C[C@H]2C(=O)N[C@@H](Cc2c[nH]c3ccccc23)C(=O)N[C@@H](CCN)C(=O)N[C@@H](Cc2cn(CC(=O)O)c3ccccc23)C(=O)N1C` [Example 10515] (Y[Pip]NP[Dap]L[Hyp]W[Dab][Trp(1-CH2COOH)][NMeNle][NMeNle]L[Aad]G-NH2; lactam N-14), under “range classes”, the 50% inhibitory concentration (IC50) lay in the range of 0.01 to 0.099 µM.
`CCCC[C@H]1C(=O)N(C)[C@@H](CCCC)C(=O)N[C@@H](CC(C)C)C(=O)N[C@H](C(=O)NCC(N)=O)CCCC(=O)N[C@@H](Cc2ccc(O)cc2)C(=O)N(C)[C@@H](C)C(=O)N[C@@H](CC(=O)O)C(=O)N2CCC[C@H]2C(=O)N[C@@H](Cc2c[nH]cn2)C(=O)N[C@@H](CCCCN)C(=O)N2C[C@H](O)C[C@H]2C(=O)N[C@@H](Cc2c[nH]c3ccccc23)C(=O)N[C@@H](CCCCN)C(=O)N[C@@H](Cc2cn(CC(=O)O)c3ccccc23)C(=O)N1C` [Example 10516] (Y[NMeA]DPHK[Hyp]WK[Trp(1-CH2COOH)][NMeNle][NMeNle]L[Aad]G-NH2; lactam N-14): where the note is “range classes”, the IC50 lay within 0.01 to 0.099 µM.
The same measure, in the same setting: the result for `CCCC[C@H]1C(=O)N(C)[C@@H](CCCC)C(=O)N[C@@H](CC(C)C)C(=O)NCCC[C@H](N)C(=O)N[C@@H](Cc2ccc(O)cc2)C(=O)N2CCCC[C@H]2C(=O)N[C@@H](CC(N)=O)C(=O)N2CCC[C@H]2C(=O)N[C@@H](CN)C(=O)N[C@@H](CC(C)C)C(=O)N2C[C@H](O)C[C@H]2C(=O)N[C@@H](Cc2c[nH]c3ccccc23)C(=O)N[C@@H](CCN)C(=O)N[C@@H](Cc2cn(CC(=O)O)c3ccccc23)C(=O)N1C` [Example 10517] (H-[Orn]Y[Pip]NP[Dap]L[Hyp]W[Dab][Trp(1-CH2COOH)][NMeNle][NMeNle]L; lactam 1-C) reads 0.01 to 0.099 µM; that for `CCCC[C@H]1C(=O)N(C)[C@@H](CCCC)C(=O)N[C@@H](CC(C)C)C(=O)NCCC[C@H](N)C(=O)N[C@@H](Cc2ccc(OC)cc2)C(=O)N2CCCC[C@H]2C(=O)N[C@@H](CC(N)=O)C(=O)N2CCC[C@H]2C(=O)N[C@@H](CN)C(=O)N[C@@H](CC(C)C)C(=O)N2C[C@H](O)C[C@H]2C(=O)N[C@@H](Cc2c[nH]c3ccccc23)C(=O)N[C@@H](CCN)C(=O)N[C@@H](Cc2cn(CC(=O)O)c3ccccc23)C(=O)N1C` [Example 10518] (H-[Orn]Y(Me)[Pip]NP[Dap]L[Hyp]W[Dab][Trp(1-CH2COOH)][NMeNle][NMeNle]L; lactam 1-C), 0.01 to 0.099 µM.
